Assay results taken from patent publication US7538252B2, “Drug design for tubulin inhibitors, compositions, and methods of treatment thereof” (BiPar Sciences, Inc., priority 2006, dated 2009).

Assays:
HCT116 and Hela cells = assay: Cell cycle analysis by flow cytometry; type: cell-based; details: FIG. 6, compared to control DIPE
Protocol: (§1) HCT116 and Hela cells were obtained from ATCC. For DNA content analysis, 2×10^5 cells were washed twice with PBS and fixed in 70% ethanol. Cells were treated with 100 units/mL RNase A for 20 minutes at 37° C., resuspended in cold PBS containing Alexa Fluor® 405 fluorescent stain (Invitrogen) according to the manufacturer's protocol. Cells were analyzed by flow cytometry.
For DNA replication analysis, 2×10^5 cells were incubated with 50 μmol/L bromodeoxyuridine (BrdUrd) for 30 minutes. Cells were fixed in 70% ethanol and BrdUrd incorporation was determined by flow cytometric analysis using an anti-BrdUrd-FITC antibody (Becton Dickinson, Franklin Lakes, N.J.) according to the manufacturer's protocol. To assess the degree of G2/M checkpoint, mitotic cells were detected by flow cytometry using the mitosis-specific antibody GF-7. Fixed cells were incubated for 30 minutes with GF7-phycoerythrin (PE) antibody (BD Biosciences Pharmingen), washed with PBS and analyzed by flow cytometry. FIG. 6 compares the results obtained with DIPE and formula IIIB.

HeLa cells = assay: TUNEL apoptosis assay with flow cytometry; type: cell-based; details: FIG. 7, compared to control DIPE
Source text: Programmed cell death (apoptosis) is an important homeostatic mechanism in the immune and other systems. The phenomenon of nuclear disintegration during apoptosis can be used as a marker to detect cells undergoing this process. While a variety of methods are available to detect apoptotic cells the TUNEL assay allows the rapid phenotypic identification of individual apoptotic cells using flow cytometry (FACS). Terminal transferase dUTP nick end labeling (TUNEL) is a common method for detecting DNA fragmentation that results from apoptosis. The assay based on the presence of nicks in the DNA that can be identified by terminal transferase, an enzyme that will catalyze the addition of dUTPs that are secondarily labeled with a marker. It may also label cells undergoing necrosis or cells that have suffered severe DNA damage.
as §1, with “Hela” for “HCT116 and Hela”, “cytometry to characterize the cell cycle. […]” for “cytometry.”

TNF-alpha mRNA = TNF-alpha mRNA level in LPS-stimulated PU5-1.8 macrophages (Northern blot); type: cell-based, murine
Protocol: This example provides an assay that can be used to screen compounds of Formula I for their ability to reduce the expression of cytokines (e.g., TNF-alpha) in a mammal.
The murine macrophage PU5-1.8 cell line is purchased from the American Type Culture Collection (ATCC, Rockville, Md.). Cells are grown in DMEM medium supplemented with […] sodium pyruvate, 0.1 mM nonessential amino acids, 2 mM glutamine and 5% fetal bovine serum (Life Technologies, Staten Island, N.Y.). Cells are maintained in a humidified atmosphere of 5% CO2-95% air at 37° C. Cells are passaged twice weekly by firmly tapping the side of the flask to dislodge the adherent cells. Both non-adherent and adherent cells are passaged. Exponentially growing cells are seeded at 5×10^5/mL, 4 mL per 60-mm dish 24 h prior to the experiment. Test compounds are delivered in 1 mL volumes of the medium added to each dish at the start of the experiment. All dishes are incubated at 37° C. in 5% CO2-95% air for 3 h.
The Tumor Necrosis Factor (TNF-alpha) cDNA is obtained from the ATCC (Rockville, Md.). […]
Hybridized bands are quantified by analyzing the images obtained by using a video densitometer (Applied Imaging Corporation, Santa Clara, Calif.). […]
Treatment of PU5-1.8 murine macrophages with LPS (100 ng/mL) for 3 h results in a significant increase (>7 fold) in the level of TNF-alpha mRNA as determined by Northern blot analysis. […]

Row | SMILES | cell-cycle arrest (HCT116 and Hela cells) | induction of apoptosis (HeLa cells) | inhibition of TNF-alpha mRNA accumulation (TNF-alpha mRNA; 10 μM added to LPS (100 ng/mL) treated cultures, 3 h) [%] | effect on TNF-alpha mRNA expression (TNF-alpha mRNA; 10 μM, cells without LPS)
1 | COc1ccc(Oc2c(I)cc(C(C)=O)cc2I)cc1N [Formula IIIB, 1-(4-(3-amino-4-methoxyphenoxy)-3,5-diiodophenyl)ethanone] | cell-cycle arrest | induction of apoptosis | – | –
2 | COc1cc2c(c(OC)c1OC)-c1ccc(OC)c(=O)cc1[C@@H](NC(C)=O)CC2 [colchicine] | – | – | 68 | no effect
